Laboratory results from patent US12383545B1, “Treatment of migraine” (priority 2018, dated 2025).
Where “and” joins values, the source holds several entries; their conditions need not be identical. Equal values may be shown once.

Tests used:
[1] = test system: participants with episodic migraine; test: Study A: Patient Global Impression of Change (PGI-C) and satisfaction with study medication; type: in vivo, human; details: for PGI-C responders (“much better” or “very much better”), percentage / Satisfaction with study medication (“satisfied” or “extremely satisfied”), percentage: Week 12, mITT; for PGI-C response, OR (95% CI) vs placebo / Satisfaction with study medication, OR (95% CI) vs placebo: week 12
From the text: Additional prespecified responder analyses included the Patient Global Impression of Change (PGI-C), defined as “much better” or “very much better” at week 12, and satisfaction with study medication, defined as “satisfied” or “extremely satisfied” at weeks 4, 8, and 12.

ALT or AST = test: Study B: postbaseline hepatic laboratory parameters (ALT or AST, potential Hy's Law); type: in vivo, human; details: atogepant 60 mg QD or standard of care, safety population
From the text: Cases of alanine aminotransferase/aspartate aminotransferase (ALT/AST) levels ≥3 times the upper limit of normal were reported for 2.4% of participants (n=13/531) treated with atogepant and 3.2% for standard-of-care (n=6/190). No cases of potential Hy's Law were reported. Table 24 provides postbaseline hepatic laboratory parameter values of clinical interest for the safety population.

[2] = week 12, range across atogepant groups

## C[C@@H]1[C@H](c2c(F)ccc(F)c2F)C[C@H](NC(=O)c2cnc3c(c2)C[C@@]2(C3)C(=O)Nc3ncccc32)C(=O)N1CC(F)(F)F [atogepant]
[1]; 10 mg
  PGI-C responders (“much better” or “very much better”), percentage: 72.1%
  Satisfaction with study medication (“satisfied” or “extremely satisfied”), percentage: 77.7%
  PGI-C response, OR (95% CI) vs placebo: 3.05
  Satisfaction with study medication, OR (95% CI) vs placebo: 2.77
[1]; 30 mg
  PGI-C responders (“much better” or “very much better”), percentage: 73.2%
  Satisfaction with study medication (“satisfied” or “extremely satisfied”), percentage: 80.3%
  PGI-C response, OR (95% CI) vs placebo: 3.33
  Satisfaction with study medication, OR (95% CI) vs placebo: 3.44
[1]; 60 mg
  PGI-C responders (“much better” or “very much better”), percentage: 76.1%
  Satisfaction with study medication (“satisfied” or “extremely satisfied”), percentage: 82.6%
  PGI-C response, OR (95% CI) vs placebo: 3.83
  Satisfaction with study medication, OR (95% CI) vs placebo: 3.58
[1]; each atogepant group
  odds of achieving PGI-C response, times that of placebo: ≥ 3 times
[1]; week 12, atogepant groups
  odds for being treatment satisfaction responders, times greater than placebo: 2-4 times
[1]; [2]
  proportion of patients satisfied with treatment: 78%-83%
  proportion of patients who were PGI-C responders: 72%-76% and 70-80%
ALT or AST
  Potential Hy's Law (ALT or AST ≥ 3 × ULN and Bilirubin Total ≥ 2 × ULN and ALP < 2 × ULN), n/N1 (%): (0.0) %
ALT or AST; postbaseline
  ALT or AST ≥1 × ULN, n/N1 (%): (21.1) %
  ALT or AST ≥1.5 × ULN, n/N1 (%): (8.7) %
  ALT or AST ≥2 × ULN, n/N1 (%): (4.9) %
  ALT or AST ≥3 × ULN, n/N1 (%): 2.4%
  ALT or AST ≥5 × ULN, n/N1 (%): (1.3) %
  ALT or AST ≥10 × ULN, n/N1 (%): (0.6) %
  ALT or AST ≥20 × ULN, n/N1 (%): (0.0) %
ALT or AST; postbaseline, listed as Atogepant
  ALT or AST ≥3 × ULN, n/N1 (%): (2.4) %
